pEC50: −log10 of the molar value. Values after ≈ are worked out from the molar mass of the structure shown.
How the values were obtained:
[1] = target: T1, Glutamate NMDA receptor; GRIN1/GRIN2A (Homo sapiens, UniProt Q05586+Q12879); experiment: Positive allosteric modulation of recombinant human GluN1/GluN2A receptor stably expressed in HEK293 cells assessed as increase in glycine/L-glutamate-induced channel current at -70 mV holding potential by whole cell patch clamp method; format: cell-based
[2] = target: T1, Glutamate NMDA receptor; GRIN1/GRIN2A; experiment: Positive allosteric modulation of recombinant human GluN1/GluN2A receptor stably expressed in HEK293 cells assessed as increase in glycine/L-glutamate-induced channel current at -70 mV holding potential by whole cell patch clamp method relative to control; format: cell-based; conditions: filed as positive allosteric modulator
[3] = target: T2, Glutamate NMDA receptor; GRIN1/GRIN2B (Homo sapiens, UniProt Q05586+Q13224); experiment: Positive allosteric modulation of recombinant human GluN1/GluN2B receptor stably expressed in HEK293 cells assessed as increase in glycine/L-glutamate-induced channel current at -70 mV holding potential by whole cell patch clamp method; format: cell-based
[4] = target: T2, Glutamate NMDA receptor; GRIN1/GRIN2B; experiment: Positive allosteric modulation of recombinant human GluN1/GluN2B receptor stably expressed in HEK293 cells assessed as increase in glycine/L-glutamate-induced channel current at -70 mV holding potential by whole cell patch clamp method relative to control; format: cell-based; conditions: filed as positive allosteric modulator
[5] = Clearance in po dosed rat; format: ADME, organism-based; conditions: in vivo
[6] = Half life in po dosed rat; format: ADME, organism-based; conditions: in vivo
[7] = Oral bioavailability in rat; format: ADME, organism-based; conditions: in vivo
[8] = Lipophilicity, logD of compound in MeOH at 20 uM by HPLC analysis; format: physicochemical
[9] = Metabolic stability in mouse liver microsomes assessed as intrinsic clearance at 10 uM preincubated for 5 mins followed by NADPH addition and measured upto 65 mins by LC-MS/MS analysis; format: ADME, Microsome; conditions: time < 70 min, read-out: CLH
[10] = Metabolic stability in human liver microsomes assessed as intrinsic clearance at 10 uM preincubated for 5 mins followed by NADPH addition and measured upto 65 mins by LC-MS/MS analysis; format: ADME, Microsome; conditions: time < 70 min, read-out: CLH
[11] = Clearance in Sprague-Dawley rat by LC-MS/MS analysis; format: ADME; conditions: in vivo
[12] = Oral bioavailability in Sprague-Dawley rat by LC-MS/MS analysis; format: ADME, organism-based; conditions: in vivo
[13] = Ratio of drug concentration in ip dosed CD-1 mouse brain to plasma after 1 hr by LC-MS/MS analysis; format: ADME, organism-based; conditions: brain and plasma
[14] = Metabolic stability in rat liver microsomes assessed as intrinsic clearance at 10 uM preincubated for 5 mins followed by NADPH addition and measured upto 65 mins by LC-MS/MS analysis; format: ADME, Microsome; conditions: time < 70 min, read-out: CLH
[15] = Aqueous solubility of compound in PBS incubated for 1 hr under shaking condition by HPLC-MS/MS analysis; format: physicochemical
[16] = Metabolic stability in dog liver microsomes assessed as intrinsic clearance at 10 uM preincubated for 5 mins followed by NADPH addition and measured upto 65 mins by LC-MS/MS analysis; format: ADME, Canis lupus familiaris, Microsome; conditions: time < 70 min, read-out: CLH
[17] = Clearance in CD-1 mouse by LC-MS/MS analysis; format: ADME; conditions: in vivo
[18] = Clearance in Beagle dog by LC-MS/MS analysis; format: ADME, Canis lupus familiaris; conditions: in vivo
[19] = Oral bioavailability in CD-1 mouse by LC-MS/MS analysis; format: ADME, organism-based; conditions: in vivo
[20] = Oral bioavailability in Beagle dog by LC-MS/MS analysis; format: ADME, organism-based, Canis lupus familiaris; conditions: in vivo

Structure (SMILES) | pEC50 [1] | Emax [2] | pEC50 [3] | Emax [4] | further results
CCCC[C@@](C)(O)CC[C@@H](C)[C@H]1CC[C@H]2[C@@H]3CC=C4C[C@@](C)(O)CC[C@]4(C)[C@H]3CC[C@]12C | 6.80 | 190% | 6.72 | 170% | 
C[C@H](CC[C@@](C)(O)C1CC1)[C@H]1CC[C@H]2[C@@H]3CC=C4C[C@@](C)(O)CC[C@]4(C)[C@H]3CC[C@]12C | 7.13 | 180% | 7.31 | 140% | 
CC[C@@](C)(O)CC[C@@H](C)[C@H]1CC[C@H]2[C@@H]3CC=C4C[C@@](C)(O)CC[C@]4(C)[C@H]3CC[C@]12C | 6.82 | 280% | 6.52 | 190% | 
CCCC[C@](C)(O)CC[C@@H](C)[C@H]1CC[C@H]2[C@@H]3CC=C4C[C@@](C)(O)CC[C@]4(C)[C@H]3CC[C@]12C | 7.00 | 170% | 6.35 | 170% | 
C[C@H](CC[C@@](C)(O)C(F)(F)F)[C@H]1CC[C@H]2[C@@H]3CC=C4C[C@@](C)(O)CC[C@]4(C)[C@H]3CC[C@]12C | 6.51 |  | 6.74 |  | 
C[C@H](CC[C@](C)(O)C(F)(F)F)[C@H]1CC[C@H]2[C@@H]3CC[C@H]4C[C@@](C)(O)CC[C@]4(C)[C@H]3CC[C@]12C | 6.74 | 150% | 6.96 | 100% | 
C[C@H](CC[C@](C)(O)CCO)[C@H]1CC[C@H]2[C@@H]3CC=C4C[C@@](C)(O)CC[C@]4(C)[C@H]3CC[C@]12C | < 5.00 |  | < 5.00 |  | 
C[C@H](CC[C@@H](O)C(F)(F)F)[C@H]1CC[C@H]2[C@@H]3CC=C4C[C@@](C)(O)CC[C@]4(C)[C@H]3CC[C@]12C |  |  |  |  | CL/F [5]: 33.3 mL/min/kg; half-life [6]: 5.75 h; bioavailability [7]: 18%
CC(C)[C@@](C)(O)CC[C@@H](C)[C@H]1CC[C@H]2[C@@H]3CC=C4C[C@@](C)(O)CC[C@]4(C)[C@H]3CC[C@]12C | 7.22 | 260% | 7.64 | 220% | logD at 20 µM [8]: 6.7; microsomal CLint at 10 µM [9]: 31 µL/min/mg; microsomal CLint at 10 µM [10]: 6.8 µL/min/mg; clearance [11]: 31.7 mL/min/kg; bioavailability [12]: 116%; Kp at 1 h [13]: 0.2
C#C[C@](C)(O)CC[C@@H](C)[C@H]1CC[C@H]2[C@@H]3CC=C4C[C@@](C)(O)CC[C@]4(C)[C@H]3CC[C@]12C | < 5.00 |  | < 5.00 |  | 
C[C@H](CC[C@](C)(O)C(F)(F)F)[C@H]1CC[C@H]2[C@@H]3CC[C@@H]4C[C@@](C)(O)CC[C@]4(C)[C@H]3CC[C@]12C | < 5.00 |  | < 5.00 |  | 
CC(C)[C@](C)(O)CC[C@@H](C)[C@H]1CC[C@H]2[C@@H]3CC=C4C[C@@](C)(O)CC[C@]4(C)[C@H]3CC[C@]12C | 6.92 | 170% | 7.09 | 150% | 
C[C@H](CC[C@](C)(O)C1CC1)[C@H]1CC[C@H]2[C@@H]3CC=C4C[C@@](C)(O)CC[C@]4(C)[C@H]3CC[C@]12C | 6.38 | 130% | 7.22 | 130% | 
C[C@H](CC[C@@](C)(O)CCO)[C@H]1CC[C@H]2[C@@H]3CC=C4C[C@@](C)(O)CC[C@]4(C)[C@H]3CC[C@]12C | < 5.00 |  | < 5.00 |  | 
COCC[C@@](C)(O)CC[C@@H](C)[C@H]1CC[C@H]2[C@@H]3CC=C4C[C@@](C)(O)CC[C@]4(C)[C@H]3CC[C@]12C | 6.66 | 87% | 6.23 | 130% | 
C#C[C@@](C)(O)CC[C@@H](C)[C@H]1CC[C@H]2[C@@H]3CC=C4C[C@@](C)(O)CC[C@]4(C)[C@H]3CC[C@]12C | < 5.00 |  | 5.96 | 56% | 
C[C@H](CC[C@](C)(O)C(F)(F)F)[C@H]1CC[C@H]2[C@@H]3CC=C4C[C@](C)(O)CC[C@]4(C)[C@H]3CC[C@]12C | 5.66 |  | 5.82 |  | 
CC[C@](C)(O)CC[C@@H](C)[C@H]1CC[C@H]2[C@@H]3CC=C4C[C@@](C)(O)CC[C@]4(C)[C@H]3CC[C@]12C | 7.26 | 170% | 7.00 | 120% | microsomal CLint at 10 µM [14]: 2.7 µL/min/mg; logD at 20 µM [8]: 6.5; microsomal CLint at 10 µM [9]: 8.4 µL/min/mg; microsomal CLint at 10 µM [10]: 0.14 µL/min/mg; clearance [11]: 36.7 mL/min/kg; bioavailability [12]: 89%; Kp at 1 h [13]: 0.2
C[C@H](CCC(C)(C)O)[C@H]1CC[C@H]2[C@@H]3CC=C4C[C@@](C)(O)CC[C@]4(C)[C@H]3CC[C@]12C |  |  |  |  | microsomal CLint at 10 µM [14]: 35 µL/min/mg; logD at 20 µM [8]: 5; solubility at 1 h [15]: 0.62 µM (≈ 0.25 µg/mL); microsomal CLint at 10 µM [9]: 42 µL/min/mg; microsomal CLint at 10 µM [16]: 16 µL/min/mg; microsomal CLint at 10 µM [10]: 13 µL/min/mg; clearance [17]: 18.3 mL/min/kg; clearance [11]: 30 mL/min/kg; clearance [18]: 3.33 mL/min/kg; bioavailability [19]: 53%; bioavailability [12]: 23%; bioavailability [20]: 17%; Kp at 1 h [13]: 0.6; CL/F [5]: 18.3 mL/min/kg; half-life [6]: 1.7 h
C[C@H](CC[C@](C)(O)C(F)(F)F)[C@H]1CC[C@H]2[C@@H]3CC=C4C[C@@](C)(O)CC[C@@H]4[C@H]3CC[C@]12C | 7.03 | 50% | 6.60 | 52% | 
CC(C)[C@@H](O)CC[C@@H](C)[C@H]1CC[C@H]2[C@@H]3CC=C4C[C@@H](O)CC[C@]4(C)[C@H]3CC[C@]12C |  |  |  |  | CL/F [5]: 91.7 mL/min/kg; half-life [6]: < 0.6 h; bioavailability [7]: < 10%
